The values below come from patent US5849888A, “Azoamide compound” (Wako Pure Chemical Industries, Ltd., priority 1996, dated 1998).

Structures are written as SMILES.

The conditions of series [1]: in words, cited from earlier work; for solubility in an organic solvent: organic solvent used in solution polymerization of an oily soluble monomer.
Series [2] can be described thus: Solubility of azoamide compound in 100 g of solvent at 25° C. (Table 1). Type of series: physicochemical. The conditions noted are these: for Solubility in ethyl acetate: in 100 g of ethyl acetate; for Solubility in toluene: in 100 g of toluene. The source says: *^) Solubility of each azoamide compound in 100 g of the solvent at
A polymerization initiator having solubility of generally 2% or more, preferably 5% or more has high applicability, and it can be found from the above Table 1 that any of the azoamide compounds of the present invention is suitable for a polymerization reaction using an organic solvent.

Series [3] can be described thus: Decomposition rate constant at 110° C. (Table 3). It counts as physicochemical. The protocol:
(§1) 1 Percent (w/w) solution of each azoamide compound obtained in Examples 1 to 7 in ethyl benzene is prepared. A concentration of the azoamide compound is measured in a thermostat at pre-determined interval by 1 hour unit and a coefficient of decomposition rate constant at each temperature is obtained and then the temperature for 10 -hour half life is calculated on the basis of the coefficient by Arrhenius equation.
(§2) 5 ml of styrene containing a 4×10^-4 M of azoamide compound which is obtained example 1, 3, or 6 were placed in individual glass tubes. After deairing, the tubes were sealed under reduced pressure. Each tube was placed into the thermostat adjusted at 110° C. to carry out the polymerization. The tube was took out from the thermostat after predetermined time, cooled under ice water immediately to stop polymerization. The reaction solution was poured into methanol to deposit and precipitate the obtained polymer. The precipitate was recovered by filtration, and dried at 60° C. under reduced pressure for 8 hours. The weight of the polymer obtained was measured and the conversion was calculated.

A short description of series [4]: Half-life test (thermal decomposition in ethyl benzene, 10-hour half life temperature). Type of series: physicochemical. The note with it: 1% (w/w) solution in ethyl benzene; calculated by Arrhenius equation. The protocol:
Experiment 1. Half-life test
as §1

Series [5] in a line: Polymerization of styrene at 110° C. with azoamide initiator (Experiment 2). The note with it: 4×10^-4 M initiator. As for the experimental part:
as §2

Where [6] appears, read: listed as 2,2'-azobis (N-methyl-2-methyl propionamide).

Turning to `CC(C)(N=NC(C)(C)C(N)=O)C(N)=O` [2,2'-azobis (2-methylpropionamide)], in series [1], the solubility in water result was “water-soluble” and the “solubility in an organic solvent” value was “poor soluble”.

As to `CC(C)(N=NC(C)(C)C(=O)NCO)C(=O)NCO` [2,2'-azobis [2-methyl-N-(hydroxymethyl)-propionamide]], in series [1], the solubility in water result is reported as “water-soluble” and the “solubility in an organic solvent” value was “poor soluble”.

For `CNC(=O)C(C)(C)N=NC(C)(C)C(=O)NC` [Comparative example, 2,2'-azobis (N-methyl-2-methyl propionamide), reference compound], in series [1], the solubility in water result is recorded as “water-soluble” and the “solubility in an organic solvent” value is recorded as “poor soluble”. In series [2], the “Solubility in ethyl acetate” value worked out at 1.2 g and the Solubility in toluene is at most 0.5 g. In series [2] (setting [6]), the “Solubility in ethyl acetate” value is “low solubility” and the Solubility in toluene entry is “low solubility”.

For the compound `CC(C)(N=NC(C)(C)C(=O)NC1CCCCC1)C(=O)NC1CCCCC1` [Example 1, 2,2'-azobis (N-cyclohexyl-2-methyl propionamide)], in series [3], the decomposition rate constant stood at 1.72e-05 s⁻¹. For the same compound, in series [2], the “Solubility in ethyl acetate” value is reported as 3.5 g. The compound also showed a Solubility in toluene in series [2] of 5.5 g. In series [4], the “temperature for 10-hour half life” value was 111.0 °C. For the same compound, the Conversion in series [5] (polymerization time 1 h) came out at 8.7%; in series [5] (polymerization time 2 h) it was 20.5%; in series [5] (polymerization time 3 h), 30.8%; in series [5] (polymerization time 4 h), 41.2%; in series [5] (polymerization time 6 h) it was 62.5%; in series [5] (polymerization time 8 h), 81.0%.

Turning to `CC(C)CNC(=O)C(C)(C)N=NC(C)(C)C(=O)NCC(C)C` [Example 2, 2,2'-azobis [N-(2-methylpropyl)-2-methylpropionamide]], in series [2], the “Solubility in ethyl acetate” value turned out to be 14.0 g and the Solubility in toluene is recorded as 8.0 g. In addition, the “temperature for 10-hour half life” value in series [4] was 112.0 °C.

As to `CCCCNC(=O)C(C)(C)N=NC(C)(C)C(=O)NCCCC` [Example 3, 2,2'-azobis (N-butyl-2-methyl propionamide)], the decomposition rate constant in series [3] came out at 1.79e-05 s⁻¹. The “Solubility in ethyl acetate” value in series [2] is reported as “easily soluble”. In addition, in series [2], the Solubility in toluene entry is on record as “easily soluble”. Moreover, the “temperature for 10-hour half life” value in series [4] was 110.6 °C. Also, the Conversion turned out to be 9.2% in series [5] (polymerization time 1 h); 20.8% in series [5] (polymerization time 2 h); 30.8% in series [5] (polymerization time 3 h); 41.0% in series [5] (polymerization time 4 h); 61.2% in series [5] (polymerization time 6 h); 82.9% in series [5] (polymerization time 8 h).

Turning to `CC(C)NC(=O)C(C)(C)N=NC(C)(C)C(=O)NC(C)C` [Example 4, 2,2'-azobis [N-(2-methylethyl)-2-methylpropionamide]], in series [2], the “Solubility in ethyl acetate” value worked out at 11.0 g and the Solubility in toluene amounted to 5.0 g. Further, the “temperature for 10-hour half life” value in series [4] was 111.2 °C.

Turning to `CCCCCCNC(=O)C(C)(C)N=NC(C)(C)C(=O)NCCCCCC` [Example 5, 2,2'-azobis (N-hexyl-2-methyl propionamide)], in series [2], the “Solubility in ethyl acetate” value is reported as “easily soluble” and the Solubility in toluene result is recorded as “easily soluble”. In addition, in series [4], the “temperature for 10-hour half life” value was 111.6 °C.

For the compound `CCCNC(=O)C(C)(C)N=NC(C)(C)C(=O)NCCC` [Example 6, 2,2'-azobis (N-propyl-2-methyl propionamide)], the decomposition rate constant in series [3] was determined as 1.74e-05 s⁻¹. In series [2], the “Solubility in ethyl acetate” value was “easily soluble”. Moreover, the Solubility in toluene entry in series [2] was “easily soluble”. Further, in series [4], the “temperature for 10-hour half life” value was 110.8 °C. Further, the Conversion came out at 9.0% in series [5] (polymerization time 1 h); 20.0% in series [5] (polymerization time 2 h); 31.2% in series [5] (polymerization time 3 h); 41.0% in series [5] (polymerization time 4 h); 62.4% in series [5] (polymerization time 6 h); 83.6% in series [5] (polymerization time 8 h).

As for `CCNC(=O)C(C)(C)N=NC(C)(C)C(=O)NCC` [Example 7, 2,2'-azobis (N-ethyl-2-methyl propionamide)], in series [2], the “Solubility in ethyl acetate” value is 11.0 g and the Solubility in toluene stood at 4.0 g. Also, the “temperature for 10-hour half life” value in series [4] is 109.6 °C.
